Source: ChEMBL document CHEMBL5244273, “Tuberculosis: An Overview of the Immunogenic Response, Disease Progression, and Medicinal Chemistry Efforts in the Last Decade toward the Development of Potential Drugs for Extensively Drug-Resistant Tuberculosis Strains” (J Med Chem, 2021)
Values after ≈ are worked out from the molar mass of the structure shown.

Key:
Format in all cases: functional
[1] = test system: Mycobacterium tuberculosis; assay: Antimycobacterial activity against isoniazid, rifampicin, ethambutol, pyrazinamide, capreomycin, and ethionamide resistant Mycobacterium tuberculosis clinical isolate incubated for 7 days by resazurin microtitre assay; conditions: 168 h, time 7 day
[2] = test system: Mycobacterium tuberculosis; assay: Antimycobacterial activity against isoniazid, rifampicin, ethambutol, pyrazinamide, streptomycin, capreomycin, amikacin, kanamycin, ofloxacin, and ethionamide resistant Mycobacterium tuberculosis clinical isolate incubated for 7 days by resazurin microtitre assay; conditions: 168 h, time 7 day
[3] = test system: Mycobacterium tuberculosis; assay: Antimycobacterial activity against isoniazid resistant Mycobacterium tuberculosis clinical isolate incubated for 7 days by resazurin microtitre assay; conditions: 168 h, time 7 day
[4] = test system: Mycobacterium tuberculosis; assay: Antimycobacterial activity against multidrug-resistant Mycobacterium tuberculosis H37Rv assessed as inhibition of bacterial growth by alamar blue assay
[5] = test system: Mycobacterium tuberculosis; assay: Antimycobacterial activity against extensively-resistant Mycobacterium tuberculosis H37Rv assessed as inhibition of bacterial growth by alamar blue assay
[6] = test system: Mycobacterium tuberculosis; assay: Antitubercular activity against extensively drug resistant Mycobacterium tuberculosis clinical isolate 11 by resazurin microtitre assay
[7] = test system: Mycobacterium tuberculosis; assay: Antitubercular activity against multidrug resistant Mycobacterium tuberculosis clinical isolate 3 by resazurin microtitre assay
[8] = test system: Mycobacterium tuberculosis; assay: Antitubercular activity against extensively drug resistant Mycobacterium tuberculosis clinical isolate 1 by resazurin microtitre assay
[9] = test system: Mycobacterium tuberculosis; assay: Antitubercular activity against multidrug resistant Mycobacterium tuberculosis clinical isolate 2 by resazurin microtitre assay
[10] = test system: Mycobacterium tuberculosis; assay: Antitubercular activity against extensively drug resistant Mycobacterium tuberculosis clinical isolate 8 by resazurin microtitre assay
[11] = test system: Mycobacterium tuberculosis; assay: Antitubercular activity against extensively drug resistant Mycobacterium tuberculosis clinical isolate 5 by resazurin microtitre assay
[12] = test system: Mycobacterium tuberculosis; assay: Antitubercular activity against multidrug resistant Mycobacterium tuberculosis clinical isolate 10 by resazurin microtitre assay
[13] = test system: Mycobacterium tuberculosis; assay: Antitubercular activity against multidrug resistant Mycobacterium tuberculosis clinical isolate 7 by resazurin microtitre assay
[14] = test system: Mycobacterium tuberculosis; assay: Antitubercular activity against extensively drug resistant Mycobacterium tuberculosis KMRC 0 0203-0 0197 by resazurin microtitre assay
[15] = test system: Mycobacterium tuberculosis; assay: Antitubercular activity against extensively drug resistant Mycobacterium tuberculosis clinical isolate 4 by resazurin microtitre assay
[16] = test system: Mycobacterium tuberculosis; assay: Antitubercular activity against multidrug resistant Mycobacterium tuberculosis clinical isolate 5 by resazurin microtitre assay
[17] = test system: Mycobacterium tuberculosis; assay: Antitubercular activity against extensively drug resistant Mycobacterium tuberculosis clinical isolate 3 by resazurin microtitre assay
[18] = test system: Mycobacterium tuberculosis; assay: Antitubercular activity against extensively drug resistant Mycobacterium tuberculosis clinical isolate 2 by resazurin microtitre assay
[19] = test system: Mycobacterium tuberculosis; assay: Antitubercular activity against multidrug resistant Mycobacterium tuberculosis clinical isolate 6 by resazurin microtitre assay
[20] = test system: Mycobacterium tuberculosis; assay: Antitubercular activity against extensively drug resistant Mycobacterium tuberculosis clinical isolate 6 by resazurin microtitre assay
[21] = test system: Mycobacterium tuberculosis; assay: Antitubercular activity against extensively drug resistant Mycobacterium tuberculosis clinical isolate 9 by resazurin microtitre assay
[22] = test system: Mycobacterium tuberculosis; assay: Antitubercular activity against multidrug resistant Mycobacterium tuberculosis clinical isolate 1 by resazurin microtitre assay
[23] = test system: Mycobacterium tuberculosis; assay: Antitubercular activity against multidrug resistant Mycobacterium tuberculosis clinical isolate 11 by resazurin microtitre assay
[24] = test system: Mycobacterium tuberculosis; assay: Antitubercular activity against extensively drug resistant Mycobacterium tuberculosis clinical isolate 10 by resazurin microtitre assay
[25] = test system: Mycobacterium tuberculosis; assay: Antitubercular activity against multidrug resistant Mycobacterium tuberculosis clinical isolate 8 by resazurin microtitre assay
[26] = test system: Mycobacterium tuberculosis; assay: Antitubercular activity against multidrug resistant Mycobacterium tuberculosis clinical isolate 4 by resazurin microtitre assay
[27] = test system: Mycobacterium tuberculosis; assay: Antitubercular activity against multidrug resistant Mycobacterium tuberculosis clinical isolate 9 by resazurin microtitre assay
[28] = test system: Mycobacterium tuberculosis; assay: Antitubercular activity against extensively drug resistant Mycobacterium tuberculosis clinical isolate 7 by resazurin microtitre assay
[29] = test system: Mycobacterium tuberculosis; assay: Antimycobacterial activity against isoniazid, streptomycin, rifampicin, ethambutol and ethionamide resistant Mycobacterium tuberculosis clinical isolate G
[30] = test system: Mycobacterium tuberculosis; assay: Antimycobacterial activity against isoniazid, streptomycin, ethambutol and ethionamide resistant Mycobacterium tuberculosis clinical isolate A
[31] = test system: Mycobacterium tuberculosis; assay: Antimycobacterial activity against isoniazid and ethionamide resistant Mycobacterium tuberculosis clinical isolate E
[32] = test system: Mycobacterium tuberculosis; assay: Antimycobacterial activity against isoniazid and ethionamide resistant Mycobacterium tuberculosis clinical isolate B
[33] = test system: Mycobacterium tuberculosis; assay: Antimycobacterial activity against isoniazid, streptomycin, rifampicin, ethambutol, ethionamide and ofloxacin resistant Mycobacterium tuberculosis clinical isolate H
[34] = test system: Mycobacterium tuberculosis; assay: Antimycobacterial activity against isoniazid, streptomycin and ethionamide resistant Mycobacterium tuberculosis clinical isolate F
[35] = test system: Mycobacterium tuberculosis; assay: Antimycobacterial activity against extensively drug resistant Mycobacterium tuberculosis H37Rv
[36] = test system: Mycobacterium tuberculosis; assay: Antimycobacterial activity against multidrug resistant Mycobacterium tuberculosis H37Rv
[37] = test system: Mycobacterium tuberculosis; assay: Antimycobacterial activity against isoniazid, streptomycin, and rifampicin resistant Mycobacterium tuberculosis clinical isolate C

Structure (SMILES) | MIC [6] [µg/mL] | MIC [7] [µg/mL] | MIC [8] [µg/mL] | MIC [9] [µg/mL] | MIC [10] [µg/mL] | MIC [11] [µg/mL] | MIC [12] [µg/mL] | MIC [13] [µg/mL] | MIC [14] [µg/mL] | MIC [15] [µg/mL] | MIC [16] [µg/mL] | MIC [17] [µg/mL] | MIC [18] [µg/mL] | MIC [19] [µg/mL] | MIC [20] [µg/mL] | MIC [21] [µg/mL] | MIC [22] [µg/mL] | MIC [23] [µg/mL] | MIC [24] [µg/mL] | MIC [25] [µg/mL] | further results
CC(=O)N1/C(=C/c2ccc(-c3ccc(Cl)cc3)cc2)C(=O)c2ccccc21 | – | – | – | – | – | – | – | – | – | – | – | – | – | – | – | – | – | – | – | – | MIC [1]: 10.4 µM (≈ 3.89 µg/mL); MIC [2]: 8.37 µM (≈ 3.13 µg/mL); MIC [3]: 8.37 µM (≈ 3.13 µg/mL)
Cc1cc(O)n2nc(Nc3ccc(F)c(F)c3)c(C(=O)Nc3ccc(F)cc3)c2n1 | – | – | – | – | – | – | – | – | – | – | – | – | – | – | – | – | – | – | – | – | MIC [4]: 3.12 µg/mL (≈ 7.55 µM); MIC [5]: 25 µg/mL (≈ 60.5 µM)
CC[C@@H](CO)NCCN[C@@H](CC)CO [ETHAMBUTOL] | 6.25 (≈ 30.6 µM) | 3.13 (≈ 15.3 µM) | 6.25 (≈ 30.6 µM) | 6.25 (≈ 30.6 µM) | 6.25 (≈ 30.6 µM) | 6.25 (≈ 30.6 µM) | 0.78 (≈ 3.82 µM) | 6.25 (≈ 30.6 µM) | 6.25 (≈ 30.6 µM) | 6.25 (≈ 30.6 µM) | 6.25 (≈ 30.6 µM) | 6.25 (≈ 30.6 µM) | 6.25 (≈ 30.6 µM) | 6.25 (≈ 30.6 µM) | 6.25 (≈ 30.6 µM) | 6.25 (≈ 30.6 µM) | 6.25 (≈ 30.6 µM) | 6.25 (≈ 30.6 µM) | 6.25 (≈ 30.6 µM) | 6.25 (≈ 30.6 µM) | MIC [26]: 6.25 µg/mL (≈ 30.6 µM); MIC [27]: 3.13 µg/mL (≈ 15.3 µM); MIC [28]: 12.5 µg/mL (≈ 61.2 µM)
CCc1cc(C(N)=S)ccn1 [ETHIONAMIDE] | – | – | – | – | – | – | – | – | – | – | – | – | – | – | – | – | – | – | – | – | MIC [29]: > 114 µg/mL; MIC [30]: 114 µg/mL (≈ 686 µM); MIC [31]: > 80 µg/mL; MIC [32]: > 114 µg/mL; MIC [33]: 114 µg/mL (≈ 686 µM); MIC [34]: > 80 µg/mL
NNC(=O)c1ccncc1 [ISONIAZID] | 6.25 (≈ 45.6 µM) | 3.13 (≈ 22.8 µM) | 12.5 (≈ 91.1 µM) | 12.5 (≈ 91.1 µM) | 12.5 (≈ 91.1 µM) | 12.5 (≈ 91.1 µM) | 3.13 (≈ 22.8 µM) | 50 (≈ 365 µM) | 25 (≈ 182 µM) | 12.5 (≈ 91.1 µM) | 12.5 (≈ 91.1 µM) | 3.13 (≈ 22.8 µM) | 3.13 (≈ 22.8 µM) | 25 (≈ 182 µM) | 12.5 (≈ 91.1 µM) | 50 (≈ 365 µM) | 12.5 (≈ 91.1 µM) | 12.5 (≈ 91.1 µM) | > 200 | 12.5 (≈ 91.1 µM) | MIC [4]: 6.25 µg/mL (≈ 45.6 µM); MIC [35]: 50 µg/mL (≈ 365 µM); MIC [36]: 6.25 µg/mL (≈ 45.6 µM); MIC [26]: 25 µg/mL (≈ 182 µM); MIC [27]: 25 µg/mL (≈ 182 µM); MIC [28]: 6.25 µg/mL (≈ 45.6 µM); MIC [5]: 50 µg/mL (≈ 365 µM)
NC(=O)c1cnccn1 [PYRAZINAMIDE] | > 200 | > 200 | > 200 | > 200 | > 200 | > 200 | > 200 | > 200 | > 200 | > 200 | > 200 | > 200 | > 200 | > 200 | > 200 | > 200 | > 200 | > 200 | > 200 | > 200 | MIC [26]: > 200 µg/mL; MIC [27]: > 200 µg/mL; MIC [28]: > 200 µg/mL
CO[C@H]1/C=C/O[C@@]2(C)Oc3c(C)c(O)c4c(O)c(c(/C=N/N5CCN(C)CC5)c(O)c4c3C2=O)NC(=O)/C(C)=C\C=C\[C@H](C)[C@H](O)[C@@H](C)[C@@H](O)[C@@H](C)[C@H](OC(C)=O)[C@@H]1C [RIFAMPIN] | > 200 | > 200 | > 200 | > 200 | > 200 | > 200 | 3.13 (≈ 3.8 µM) | > 200 | 100 (≈ 122 µM) | 6.25 (≈ 7.59 µM) | 3.13 (≈ 3.8 µM) | > 200 | > 200 | > 200 | 100 (≈ 122 µM) | > 200 | > 200 | 3.13 (≈ 3.8 µM) | 6.25 (≈ 7.59 µM) | > 200 | MIC [1]: > 12.2 µM; MIC [2]: > 12.2 µM; MIC [26]: > 200 µg/mL; MIC [27]: > 200 µg/mL; MIC [3]: 0.377 µM (≈ 0.31 µg/mL); MIC [28]: > 200 µg/mL
CN[C@@H]1[C@H](O[C@H]2[C@H](O[C@H]3[C@H](O)[C@@H](O)[C@H](N=C(N)N)[C@@H](O)[C@@H]3N=C(N)N)O[C@@H](C)[C@]2(O)C=O)O[C@@H](CO)[C@H](O)[C@H]1O [STREPTOMYCIN] | 200 (≈ 344 µM) | 0.39 (≈ 0.671 µM) | 0.78 (≈ 1.34 µM) | 1.56 (≈ 2.68 µM) | > 200 | 50 (≈ 86 µM) | > 200 | 200 (≈ 344 µM) | 0.78 (≈ 1.34 µM) | 0.78 (≈ 1.34 µM) | 3.13 (≈ 5.38 µM) | > 200 | 50 (≈ 86 µM) | 25 (≈ 43 µM) | 50 (≈ 86 µM) | 200 (≈ 344 µM) | 100 (≈ 172 µM) | 3.13 (≈ 5.38 µM) | < 0.09 | 3.13 (≈ 5.38 µM) | MIC [29]: > 64 µg/mL; MIC [30]: > 64 µg/mL; MIC [31]: 16 µg/mL (≈ 27.5 µM); MIC [32]: 8 µg/mL (≈ 13.8 µM); MIC [37]: 32 µg/mL (≈ 55 µM); MIC [26]: 0.78 µg/mL (≈ 1.34 µM); MIC [33]: > 64 µg/mL; MIC [34]: > 16 µg/mL; MIC [27]: 25 µg/mL (≈ 43 µM); MIC [28]: 0.78 µg/mL (≈ 1.34 µM)
